From patent US20030203963A1, “Antimicrobial agent” (priority 2001, published 2003)

Assays:
L. monocytogenes 272 = assay: Test in cooked minced beef slurry; assay type: cell-based, Listeria monocytogenes
Description: (§1) 1 kg of minced beef, purchased from the local butcher, was mixed with 1 litre of BHI. 200 g portion of this meat slurry was autoclaved. When the meat had cooled, the pH was recorded (pH 6.24), and each pot was inoculated with 2.0 ml of 10^5 spores or cells and the meat re-mixed thoroughly. Each inoculated 200 g pot was distributed as 3×50 g portions. To each pot 1 ml of SDW, 5% or 10% APP (Batch No. APP20010215) was added, and the meat was again mixed thoroughly. An initial viable count was performed, the meat was incubated at 8° C. and sampled twice weekly. The pH of the cooked minced beef slurry was 6.24.

B. nivea 163642 = assay: Test in apple juice; assay type: cell-based; details: apple juice (pH 3.42) at 25° C., TAJ010530
Description: (§2) 8.9 ml apple juice samples (pH 3.42) were prepared and autoclaved. Batch number APP20010215 (at 138 mg/ml) was used to prepare filter-sterilised stock solutions for 1 ml addition to the juice to achieve 0, 1000, 2000 ppm APP. Tests were inoculated with 100 μl of an appropriately diluted overnight SLM broth of yeast culture or ascospore suspension of Byssochlamys spores prepared earlier. The tests were incubated at 25° C., and examined daily for signs of growth (e.g. turbidity, mycelium development).

[1] = test system: Hanseniaspora uvarum CBS5074; assay: Test in apple juice; assay type: cell-based; details: for Growth inhibition: apple juice (pH 3.42) at 25° C., TAJ010530
Description: as §2

[2] = test system: Zygosaccharomyces bailii CRA229; assay: Test in apple juice; assay type: cell-based; details: for Growth controlled for: apple juice (pH 3.42) at 25° C., TAJ010530
Description: as §2

Lb. sake = assay: Test in milk; assay type: cell-based, Lactobacillus sake; details: for Control of growth: 2000 ppm, TMGB010605
Description: 8.9 ml samples of UHT milk containing 0.5% glucose and the indicator bromocresol purple (0.01%) were prepared and sterilised by autoclaving. The pH before APP addition was pH 6.65. Appropriate stock solutions of APP batch number APP20010215 (at 138 mg/ml) were prepared and filter sterilised. 1 ml of each was added to the milk to prepare tests containing 0, 1000 and 2000 ppm APP. Tests were then inoculated with 100 μl of diluted overnight broth cultures or spore suspensions to give a final inoculum level of ca. 10^3 cfu/ml. These and uninoculated tests were incubated at 20 and 8° C. and examined daily for visible changes compared to uninoculated control.

[3] = test system: Br. thermosphacta CRA78884; assay: Test in cooked sausage meat slurry; assay type: cell-based, Brochothrix thermosphacta; details: 500 ppm; cooked sausage meat slurry at 8° C., pH 6.2, TSM010605
From the text: 500 g of bologna sausage meat mixture was mixed with 500 g Brain Heart Infusion broth (BHIB) to make a homogeneous slurry. The bologna sausage meat mix comprised (g per kg): lean beef 320; lean pork 202; lard 250; water 40; glucose 5; starch 155; spice mix 3.75; sodium glutamate 0.5; sodium erythorbate 0.545; sodium di-phosphate 3; NaCl 20; sodium nitrite 0.15. 200 g samples of the meat slurry were autoclaved. While the meat was still warm it was re-mixed thoroughly. When the meat had cooled it was inoculated with 2 ml of 10^5 cfu/ml spore or cell suspension, and re-mixed again. […] The meat slurry was again shaken thoroughly to ensure even mixing, an initial viable count was taken and the samples incubated at 8° C. Samples were taken at twice-weekly intervals. The pH of the sausage meat slurry was 6.2.

Salmonella spp = assay: Lab media at optimum temperature (summary); assay type: cell-based
Description: (§3) For broth cultures and Bioscreen testing most bacteria were grown in Brain Heart Infusion (BHI, Oxoid, pH 7.4). Lactobacillus sake A10 was grown in de Man, Rogosa, Sharpe medium ([…], Oxoid). Yeasts were grown in Sabouraud Liquid medium (SLM, Oxoid). Most bacteria were cultured at 30° C. Lactic acid bacteria were grown on solid medium in enriched CO2 atmosphere. Clostridium species were grown in Reinforced Clostridial Medium (RCM) at 37° C. anaerobically. Brochothrix thermosphacta fungi and yeasts were grown at 25° C. Fungi were cultured on Malt Extract Agar (MEA, Oxoid).
(§4) An automated Microbiology Reader Bioscreen C was used to measure growth curves of the strains in the presence and absence of APP. The Bioscreen C measures the development of turbidity (i.e. growth) kinetically by vertical photometry in 200 wells of a honeycomb microtitre plate, simultaneously. The system consists of a Bioscreen C analyser, which is an incubator and measurement unit, integrated with a PC, software (BioLink v 5.30), printer and a ‘Honeycomb 2’ cuvette multiwell plate. Growth curve data can be analysed within the BioLink software or exported to programs such as Excel.
(§5) Broth culture media were dispensed in 270 μl volumes into the wells as directed. Serial dilutions of a filter-sterilised APP stock solution were then dispensed into the same wells, as appropriate. The wells were inoculated with 30 μl of an appropriately diluted overnight broth culture or spore suspension, to give a final inoculum level of […]. The tests were incubated in the Bioscreen C for either 24 h at 30° C., or 72 h at 25° C. (depending on the micro-organism under investigation) with readings taken every 20 minutes after the trays were shaken. After the incubation period was complete the data were exported to Excel for analysis.

Most yeasts = assay: Lab media at optimum temperature (summary); assay type: cell-based
Description: as §3, §4, §5

Ps. fluorescens 3756 = assay: Test in cooked minced beef slurry; assay type: cell-based, Pseudomonas fluorescens
Description: as §1

B. cereus Campden = assay: Bioscreen growth inhibition test; assay type: cell-based, Bacillus cereus; details: BS010411, 24 h at 30° C.
Description: as §3, §4, §5

B. cereus 204 = assay: Bioscreen growth inhibition test; assay type: cell-based, Bacillus cereus; details: BS010411, 24 h at 30° C.
Description: as §3, §4, §5

B. cereus 3.046 = assay: Bioscreen growth inhibition test; assay type: cell-based, Bacillus cereus; details: BS010510, 24 h at 30° C., APP20010213
Description: as §3, §4, §5

[4] = 2000 ppm, minced beef slurry at 8° C., pH 6.24, TCM010619

O=C1CC(CO)OC=C1O (stereo not shown) [APP, Ascopyrone P]
Effect on growth (L. monocytogenes 272; [4]): No significant inhibition by 2000 ppm | No inhibition (effect on growth of target organism by 2000 ppm APP) (L. monocytogenes 272; Cooked minced beef slurry at 8° C. pH 6.24, organism printed in brackets): (L. monocytogenes) | Growth inhibition (B. nivea 163642; 1000 ppm): No growth inhibition | Growth inhibition (B. nivea 163642; 2000 ppm): No growth inhibition | Growth inhibition ([1]; 1000 ppm): No growth inhibition | Growth inhibition ([1]; 2000 ppm): No growth inhibition | No inhibition (effect on growth of target organism by 2000 ppm APP) ([1]; Apple juice at ambient pH 3.4): H. uvarum | Growth controlled for ([2]; 1000 ppm): 34 days | Growth controlled for ([2]; 2000 ppm): 34 days | Partial inhibition (effect on growth of target organism by 2000 ppm APP) ([2]; Apple juice at ambient pH 3.4): Z. bailii | Control of growth (Lb. sake; milk at 8° C.): No control observed | Control of growth (Lb. sake; milk at 20° C.): No control observed | No inhibition (effect on growth of target organism by 2000 ppm APP) (Lb. sake; Milk at 8° C. pH 6.65): Lb. sake | No inhibition (effect on growth of target organism by 2000 ppm APP) (Lb. sake; Milk at 20° C. pH 6.65): Lb. sake | Effect on growth [3]: No significant effect with 500 and 100 ppm | Partial inhibition (effect on growth of target organism by 2000 ppm APP) (Salmonella spp): Salmonella spp | Effect on growth of target organism by 2000 ppm APP (remark in No inhibition column) (Most yeasts): (enhanced growth) | No inhibition (effect on growth of target organism by 2000 ppm APP) (Most yeasts): Most yeasts | Growth delayed by (Ps. fluorescens 3756; 1000 ppm, minced beef slurry at 8° C., pH 6.24, TCM010619): 1000 ppm delayed growth by 17 d | Total inhibition for (Ps. fluorescens 3756; [4]): Total inhibition by 2000 ppm for 27 d | Total inhibition (effect on growth of target organism by 2000 ppm APP) (Ps. fluorescens 3756; Cooked minced beef slurry at 8° C. pH 6.24): Ps. fluorescens | APP level causing significant inhibition (B. cereus Campden; APP20010213): 2000 ppm | APP level causing total inhibition (B. cereus Campden; APP20010213): 4000 ppm | APP level causing significant inhibition (B. cereus Campden; APP20010215): 2000 ppm | APP level causing total inhibition (B. cereus Campden; APP20010215): >4000 ppm | APP level causing significant inhibition (B. cereus 204; APP20010213): 4000 ppm | APP level causing total inhibition (B. cereus 204; APP20010213): >4000 ppm | APP level causing significant inhibition (B. cereus 204; APP20010215): 2000 ppm | APP level causing total inhibition (B. cereus 204; APP20010215): 4000 ppm | APP level causing significant inhibition (B. cereus 3.046): 2000 ppm | APP level causing total inhibition (B. cereus 3.046): 3000 ppm
